Holding throughout (format): in vivo
For experiment [1], the system named is Echinochloa crus-galli (ECHCG). Description: Post-emergence biological efficacy, glasshouse pot test. The following applies: evaluated after 13 days, 100=total damage, 0=no damage, read-out: Percentage damage caused to weed species, post-emergence, ECHCG; for pest or weed control at 1000 g/ha: 312 h, 1,000 g/ha. In outline:
(§1)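 Visual damage ratings (100 total kill, 0 no effect) were taken 13 days after spraying. Plants had been grown 8 days from seed before a single application of 1000 or 250 g/ha in aqueous acetone (50:50) containing 0.5% Tween 20.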

The test system of experiment [2] is Amaranthus retroflexus (AMARE). The experiment is described as above. As to conditions: evaluated after 13 days, 100=total damage, 0=no damage, read-out: Percentage damage caused to weed species, post-emergence, AMARE; for pest or weed control at 1000 g/ha: 312 h, 1,000 g/ha. The gist of the method:
as §1

The test system of experiment [3] is Setaria faberi (SETFA). Described as above. As to conditions: evaluated after 13 days, 100=total damage, 0=no damage, read-out: Percentage damage caused to weed species, post-emergence, SETFA; for pest or weed control at 1000 g/ha: 312 h, 1,000 g/ha. In outline: as §1
In experiment [4] the test system is Alopecurus myosuroides (ALOMY). The description is as above. The following applies: evaluated after 13 days, 100=total damage, 0=no damage, read-out: Percentage damage caused to weed species, post-emergence, ALOMY; for pest or weed control at 1000 g/ha: 312 h, 1,000 g/ha. The gist of the method: as §1
In experiment [5] the test system is Ipomea hederaceae (IPOHE). Described as above. The following applies: Ipomoea hederacea, evaluated after 13 days, 100=total damage, 0=no damage, read-out: Percentage damage caused to weed species, post-emergence, IPOHE; for pest or weed control at 1000 g/ha: 312 h, 1,000 g/ha. The gist of the method: as §1
For experiment [6], the system named is Solanum nigrum (SOLNI). The description is as above. The following applies: evaluated after 13 days, 100=total damage, 0=no damage, read-out: Percentage damage caused to weed species, post-emergence, SOLNI; for pest or weed control at 1000 g/ha: 312 h, 1,000 g/ha. In outline: as §1
Experiment [7] concerns Echinochloa crus-galli (ECHCG). The experiment in a line: Pre-emergence biological efficacy, glasshouse pot test. The following applies: evaluated after 13 days, 100=total damage, 0=no damage, read-out: Percentage damage caused to weed species, pre-emergence, ECHCG; for pest or weed control at 1000 g/ha: 312 h, 1,000 g/ha. In outline: (§2)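 Damage was rated 13 days after treatment on a 0–100 scale, where 100 is total plant kill. Pots sown one day earlier were sprayed with 1000 or 250 g/ha test compound in aqueous acetone/water (50:50) containing 0.5% Tween 20, and grown at 24/16 °C with 14 h light, 65% humidity and twice-daily watering.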

The subject of experiment [8] is Amaranthus retroflexus (AMARE). Described as above. The following applies: evaluated after 13 days, 100=total damage, 0=no damage, read-out: Percentage damage caused to weed species, pre-emergence, AMARE; for pest or weed control at 1000 g/ha: 312 h, 1,000 g/ha. The gist of the method: as §2
The test system of experiment [9] is Setaria faberi (SETFA). The description is as above. As to conditions: evaluated after 13 days, 100=total damage, 0=no damage, read-out: Percentage damage caused to weed species, pre-emergence, SETFA; for pest or weed control at 1000 g/ha: 312 h, 1,000 g/ha. In outline: as §2
The test system of experiment [10] is Alopecurus myosuroides (ALOMY). The experiment is described as above. As to conditions: evaluated after 13 days, 100=total damage, 0=no damage, read-out: Percentage damage caused to weed species, pre-emergence, ALOMY; for pest or weed control at 1000 g/ha: 312 h, 1,000 g/ha. In outline: as §2
The subject of experiment [11] is Ipomea hederaceae (IPOHE). Described as above. As to conditions: Ipomoea hederacea, evaluated after 13 days, 100=total damage, 0=no damage, read-out: Percentage damage caused to weed species, pre-emergence, IPOHE; for pest or weed control at 1000 g/ha: 312 h, 1,000 g/ha. In outline: as §2
Experiment [12] deals with Solanum nigrum (SOLNI). The experiment is described as above. As to conditions: evaluated after 13 days, 100=total damage, 0=no damage, read-out: Percentage damage caused to weed species, pre-emergence, SOLNI; for pest or weed control at 1000 g/ha: 312 h, 1,000 g/ha. In outline:
as §2

Molecules are shown by their SMILES.

As to `COC(=O)c1nc(Cl)c(F)c(NCc2ncccc2Cl)c1Br` [Compound 32-29, 3-Bromo-6-chloro-4-[(3-chloro-pyridin-2-ylmethyl)-amino]-5-fluoro-pyridine-2-carboxylic acid methyl ester], the pest or weed control at 250 g/ha in experiment [1] (312 h, 250 g/ha) came to 50%; in [2] (312 h, 250 g/ha), 70%; in [3] (312 h, 250 g/ha), 60%; in experiment [4] (312 h, 250 g/ha), 20%; in experiment [5] (312 h, 250 g/ha), 60%; in [6] (312 h, 250 g/ha), 80%. Also, the pest or weed control at 250 g/ha in [7] (312 h, 250 g/ha) came to 10%; in experiment [8] (312 h, 250 g/ha), 90%; in experiment [9] (312 h, 250 g/ha), 0%; in [10] (312 h, 250 g/ha) it was 10%; in [11] (312 h, 250 g/ha), 70%; in experiment [12] (312 h, 250 g/ha), 80%.
Take `COC(=O)c1nc(Cl)cc(NCc2ccccn2)c1Cl` [Compound 31-2, 3,6-Dichloro-4-(pyridin-2-ylmethylamino)-pyridine-2-carboxylic acid methyl ester]: the pest or weed control at 1000 g/ha is 20% in experiment [1]; 100% in experiment [2]; 80% in experiment [3]; 50% in experiment [4]; 80% in [5]; 100% in [6]. Moreover, the pest or weed control at 1000 g/ha came out at 60% in experiment [7]; 100% in experiment [8]; 80% in experiment [9]; 70% in experiment [10]; 100% in experiment [11]; 100% in experiment [12].
Regarding `COC(=O)c1nc(Cl)cc(NCc2ccccc2Br)c1Cl` [Compound 72-2, 4-[(2-Bromophenyl-methyl)-amino]-3,6-dichloro-pyridine-2-carboxylic acid methyl ester], the pest or weed control at 1000 g/ha came out at 10% in experiment [1]; 100% in experiment [2]; 70% in [3]; 20% in experiment [4]; 70% in experiment [5]; 100% in [6]. For the same molecule, the pest or weed control at 1000 g/ha in experiment [7] amounted to 10%; in [8] it was 90%; in experiment [9], 30%; in [10], 30%; in [11], 80%; in experiment [12], 100%.
In the case of `C=Cc1c(NCc2ccco2)cc(Cl)nc1C(=O)O` [Compound 26-11, 6-chloro-3-ethenyl-4-[(furan-2-ylmethyl)-amino]-pyridine-2-carboxylic acid], the pest or weed control at 1000 g/ha in [1] stood at 80%; in experiment [2] it was 100%; in experiment [3], 90%; in [4] it was 80%; in experiment [5] it was 80%; in experiment [6] it was 100%. Besides, the pest or weed control at 1000 g/ha in [7] is 90%; in experiment [8] it was 100%; in experiment [9], 100%; in experiment [10] it was 100%; in experiment [11], 100%; in experiment [12], 100%.
In the case of `C=Cc1c(NCc2ccco2)cc(Cl)nc1C(=O)OC` [Compound 26-12, 6-Chloro-3-ethenyl-4-[(furan-2-ylmethyl)-amino]-pyridine-2-carboxylic acid methyl ester], the pest or weed control at 1000 g/ha is 80% in [1]; 100% in experiment [2]; 90% in [3]; 80% in experiment [4]; 70% in experiment [5]; 100% in [6]. Further, the pest or weed control at 1000 g/ha in experiment [7] worked out at 90%; in experiment [8], 100%; in experiment [9] it was 100%; in [10], 90%; in experiment [11] it was 90%; in [12], 100%.
As for `COC(=O)c1nc(C2CC2)cc(NCc2ccco2)c1Cl` [Compound 26-83, 3-chloro-6-cyclopropyl-4-[(furan-2-ylmethyl)-amino]-pyridine-2-carboxylic acid methyl ester], the pest or weed control at 1000 g/ha in experiment [1] came to 0%; in experiment [2], 100%; in experiment [3] it was 0%; in experiment [4], 0%; in [5] it was 100%; in [6] it was 90%. For the same molecule, the pest or weed control at 1000 g/ha turned out to be 20% in experiment [7]; 100% in [8]; 20% in [9]; 40% in experiment [10]; 100% in experiment [11]; 100% in [12].
As for `CCN1CCCC1CNc1cc(Cl)nc(C(=O)OC)c1Cl` (stereo not drawn) [Compound 71-2, 3,6-Dichloro-4-[(N-ethyl-pyrrolidin-2-ylmethyl)-amino]-pyridine-2-carboxylic acid methyl ester], the pest or weed control at 1000 g/ha in experiment [1] was found to be 20%; in [2] it was 100%; in [3], 50%; in experiment [4], 20%; in experiment [5] it was 60%; in experiment [6], 100%. Also, the pest or weed control at 1000 g/ha in experiment [7] stood at 20%; in experiment [8], 100%; in [9], 80%; in [10] it was 70%; in [11], 100%; in experiment [12], 100%.

The values above are taken from patent US20120100990A1, “4 -AMINOPICOLINATES AND THEIR USE AS HERBICIDES” (SYNGENTA CROP PROTECTION LLC, priority 2009, published 2012).
